Laboratory results as given in patent US20070191291A1, “Compound antibacterial drugs comprising n-acetyl-d-glucosamine” (priority 2003, published 2007).
Like-named read-outs stand apart in the source and are kept apart here.

What was measured:
[1] = test system: rats infected and not infected by Bacillus typhi murium; format: in vivo, Wistar rats; conditions: rats infected or not by Bacillus typhi murium, consecutive week, 15 rats per group
[2] = test system: irritable bowel syndrome (IBS) caused by bacterial CGC; experiment: Test Example 5: preventing irritable bowel syndrome (IBS) caused by bacterial CGC; format: in vivo, rats; conditions: for CGCs in the rat stools after one week of drug withdrawal / CGCs in the stools of the rats: rats, effective dosage for consecutive 10 days, 30 rats per group; for CGCs in the stools of the rats: stools observed during administration and within 1 week after drug withdrawal
From the text: On this basis, the rats were subjected to stimulations such as electric stimulation, intragastric administration with fructus zanthoxyli water, cold, constraint etc. in order to induce IBS, and the incidence rates of IBS of two groups were observed.

Bacillus cereus = experiment: Test Example 2: preventing formation of bacterial CGC in vitro (K-B method); format: cell-based
Protocol: (§1) E. coli (No. 33310, purchased from Chengdu Institute of Biological Products, the Ministry of Public Health) was used in the tests. Grid design was performed by using antibiotic with different concentrations and N-acetyl-D-glucosamine having an amount of from 10 mg to 300 mg. Streak plates were conducted separately, and K-B method was employed for drugs. Colonies at marginal part of drug inhibition zone were picked and were observed under microscope. If cell length was more than 50 μm and cell number was more than 5 in each visual field, it was deemed as CGC positive and was marked with “+”; while if cell length was not greater than 50 μm and cell number was within the range from 0 to 4 in each visual field, it was deemed as CGC negative and was marked with “−”. At this time, the ratio of two substances was called “effective ratio”.
(§2) Effects tests of compound preparation comprising N-acetyl-D-glucosamine and antibiotics for preventing the formation of bacterial CGC in vitro.
(§3) The tests were carried out in vitro, wherein gram-negative amphimicrodes, gram-negative anaerobes and gram-positive aerobes were separately coated on streak plates, test drugs and control drugs were separately dissolved with same volume of sterile water for injection, 10 μl of each drug was used for preparing drug-sensitive paper, K-B method was employed in the tests of drugs, and the inhibition situations of CGC formation were observed.

Bacillus proteus = experiment: as above; format: cell-based
Protocol: as §1, §2, §3

Bacteroides fragilis = experiment: as above; format: cell-based
Protocol: as §1, §2, §3

Citro Bacter = experiment: as above; format: cell-based
Protocol: as §1, §2, §3

Diphtheroid bacillus = experiment: as above; format: cell-based
Protocol: as §1, §2, §3

E. coli = experiment: as above; format: cell-based
Protocol: as §1, §2, §3

Klebsiella = experiment: as above; format: cell-based
Protocol: as §1, §2, §3

Listeria = experiment: as above; format: cell-based
Protocol: as §1, §2, §3

Nucleic Acid Bacter = experiment: as above; format: cell-based
Protocol: as §1, §2, §3

[3] = first of three values given respectively: electric stimulation
[4] = second of three values given respectively: intragastric administration with fructus zanthoxyli water
[5] = third of three values given respectively: cold, constraint etc.
[6] = compound preparation N-acetyl-D-glucosamine (100 mg) and chloramphenicol (400 mg), control chloramphenicol (400 mg)
[7] = compound injection 100 mg N-acetyl-D-glucosamine + 300 mg kanamycin, control kanamycin same dose
[8] = compound preparation N-acetyl-D-glucosamine (100 mg) and lincomycin (400 mg), control lincomycin (400 mg)
[9] = compound preparation 100 mg N-acetyl-D-glucosamine + 400 mg norfloxacin, control norfloxacin same dose

CO[C@@]1(NC(=O)Cc2cccs2)C(=O)N2C(C(=O)O)=C(COC(N)=O)CS[C@@H]21 [cefoxitin] was tested, and the “positive rates of stool CGC and intestinal mucosa CGC” value (from here on “positive rates”) ([1]; N-acetyl-D-glucosamine (100 mg)+cefoxitin (150 mg) vs only cefoxitin) was 100%, the “incidence rate of IBS” value [2, 3] was 33% and the “CGCs in the rat stools after one week of drug withdrawal” value (“CGCs in the rat stools after one week” for short) [2] was “still present”. For the same compound, the “CGCs in the stools of the rats” value [2] was “a large amount of CGCs appeared”, the “incidence rate of IBS” value [2, 4] was 33% and the “incidence rate of IBS” value [2, 5] was 33%.
For O=C(N[C@H](CO)[C@H](O)c1ccc([N+](=O)[O-])cc1)C(Cl)Cl [Chloramphenicol, chloramphenicol], the CGC formation (Bacillus cereus; [6]) was “+ (If cell length was more than 50 μm and cell number was more than 5 in each visual field, it was deemed as CGC positive and was marked with “+”)”, the CGC formation (Bacillus proteus; [6]) was “+ (If cell length was more than 50 μm and cell number was more than 5 in each visual field, it was deemed as CGC positive and was marked with “+”)” and the CGC formation (Bacteroides fragilis; [6]) was “+ (If cell length was more than 50 μm and cell number was more than 5 in each visual field, it was deemed as CGC positive and was marked with “+”)”. For the same compound, the CGC formation (Citro Bacter; [6]) was “+ (If cell length was more than 50 μm and cell number was more than 5 in each visual field, it was deemed as CGC positive and was marked with “+”)”, the CGC formation (Diphtheroid bacillus; [6]) was “+ (If cell length was more than 50 μm and cell number was more than 5 in each visual field, it was deemed as CGC positive and was marked with “+”)” and the CGC formation (E. coli; [6]) was “+ (If cell length was more than 50 μm and cell number was more than 5 in each visual field, it was deemed as CGC positive and was marked with “+”)”. For the same compound, the CGC formation (Klebsiella; [6]) was “+ (If cell length was more than 50 μm and cell number was more than 5 in each visual field, it was deemed as CGC positive and was marked with “+”)”, the CGC formation (Listeria; [6]) was “+ (If cell length was more than 50 μm and cell number was more than 5 in each visual field, it was deemed as CGC positive and was marked with “+”)” and the CGC formation (Nucleic Acid Bacter; [6]) was “+ (If cell length was more than 50 μm and cell number was more than 5 in each visual field, it was deemed as CGC positive and was marked with “+”)”. The “positive rates” value ([1]; N-acetyl-D-glucosamine (100 mg)+chloramphenical (400 mg) vs only chloramphenicol) was 100%, the “incidence rate of IBS” value [2, 3] was 33% and the “CGCs in the rat stools after one week” value [2] was “still present”. The “CGCs in the stools of the rats” value [2] was “a large amount of CGCs appeared”, the “incidence rate of IBS” value [2, 4] was 33% and the “incidence rate of IBS” value [2, 5] was 33%.
For NC[C@H]1O[C@H](O[C@H]2[C@H](O)[C@@H](O[C@H]3O[C@H](CO)[C@@H](O)[C@H](N)[C@H]3O)[C@H](N)C[C@@H]2N)[C@H](O)[C@@H](O)[C@@H]1O [Kanamycin, kanamycin], the CGC formation (Bacillus cereus; [7]) was “+ (If cell length was more than 50 μm and cell number was more than 5 in each visual field, it was deemed as CGC positive and was marked with “+”)”, the CGC formation (Bacillus proteus; [7]) was “+ (If cell length was more than 50 μm and cell number was more than 5 in each visual field, it was deemed as CGC positive and was marked with “+”)” and the CGC formation (Bacteroides fragilis; [7]) was “+ (If cell length was more than 50 μm and cell number was more than 5 in each visual field, it was deemed as CGC positive and was marked with “+”)”. For the same compound, the CGC formation (Citro Bacter; [7]) was “+ (If cell length was more than 50 μm and cell number was more than 5 in each visual field, it was deemed as CGC positive and was marked with “+”)”, the CGC formation (Diphtheroid bacillus; [7]) was “+ (If cell length was more than 50 μm and cell number was more than 5 in each visual field, it was deemed as CGC positive and was marked with “+”)” and the CGC formation (E. coli; [7]) was “+ (If cell length was more than 50 μm and cell number was more than 5 in each visual field, it was deemed as CGC positive and was marked with “+”)”. For the same compound, the CGC formation (Klebsiella; [7]) was “+ (If cell length was more than 50 μm and cell number was more than 5 in each visual field, it was deemed as CGC positive and was marked with “+”)”, the CGC formation (Listeria; [7]) was “+ (If cell length was more than 50 μm and cell number was more than 5 in each visual field, it was deemed as CGC positive and was marked with “+”)” and the CGC formation (Nucleic Acid Bacter; [7]) was “+ (If cell length was more than 50 μm and cell number was more than 5 in each visual field, it was deemed as CGC positive and was marked with “+”)”. For the same compound, the “positive rates” value ([1]; N-acetyl-D-glucosamine (100 mg)+kanamycin (200 mg) vs only kanamycin) was 100%, the “incidence rate of IBS” value [2, 3] was 33% and the “incidence rate of IBS” value [2, 4] was 33%. For the same compound, the “incidence rate of IBS” value [2, 5] was 33%.
In the case of CCC[C@@H]1C[C@@H](C(=O)N[C@@H]([C@H]2O[C@H](SC)[C@H](O)[C@@H](O)[C@H]2O)[C@@H](C)O)N(C)C1 [Lincomycin, lincomycin], the CGC formation (Bacillus cereus; [8]) is reported as “+ (If cell length was more than 50 μm and cell number was more than 5 in each visual field, it was deemed as CGC positive and was marked with “+”)”, the CGC formation (Bacillus proteus; [8]) is reported as “+ (If cell length was more than 50 μm and cell number was more than 5 in each visual field, it was deemed as CGC positive and was marked with “+”)” and the CGC formation (Bacteroides fragilis; [8]) is reported as “+ (If cell length was more than 50 μm and cell number was more than 5 in each visual field, it was deemed as CGC positive and was marked with “+”)”. For the same compound, the CGC formation (Citro Bacter; [8]) was “+ (If cell length was more than 50 μm and cell number was more than 5 in each visual field, it was deemed as CGC positive and was marked with “+”)”, the CGC formation (Diphtheroid bacillus; [8]) was “+ (If cell length was more than 50 μm and cell number was more than 5 in each visual field, it was deemed as CGC positive and was marked with “+”)” and the CGC formation (E. coli; [8]) was “+ (If cell length was more than 50 μm and cell number was more than 5 in each visual field, it was deemed as CGC positive and was marked with “+”)”. For the same compound, the CGC formation (Klebsiella; [8]) was “+ (If cell length was more than 50 μm and cell number was more than 5 in each visual field, it was deemed as CGC positive and was marked with “+”)”, the CGC formation (Listeria; [8]) was “+ (If cell length was more than 50 μm and cell number was more than 5 in each visual field, it was deemed as CGC positive and was marked with “+”)” and the CGC formation (Nucleic Acid Bacter; [8]) was “+ (If cell length was more than 50 μm and cell number was more than 5 in each visual field, it was deemed as CGC positive and was marked with “+”)”. For the same compound, the “positive rates” value ([1]; N-acetyl-D-glucosamine (100 mg)+lincomycin (400 mg) vs only lincomycin) was 100%, the “incidence rate of IBS” value [2, 3] was 33% and the “CGCs in the rat stools after one week” value [2] was “still present”. The “CGCs in the stools of the rats” value [2] was “a large amount of CGCs appeared”, the “incidence rate of IBS” value [2, 4] was 33% and the “incidence rate of IBS” value [2, 5] was 33%.
In the case of O=C(O)c1cn(C2CC2)c2cc(N3CCNCC3)c(F)cc2c1=O [ciprofloxacin], the “positive rates” value ([1]; N-acetyl-D-glucosamine (100 mg)+ciprofloxacin (500 mg) vs only ciprofloxacin) is reported as 100%.
CCn1cc(C(=O)O)c(=O)c2cc(F)c(N3CCNCC3)cc21 [Norfloxacin, norfloxacin] was tested, and the CGC formation (Bacillus cereus; [9]) was “+ (If cell length was more than 50 μm and cell number was more than 5 in each visual field, it was deemed as CGC positive and was marked with “+”)”, the CGC formation (Bacillus proteus; [9]) was “+ (If cell length was more than 50 μm and cell number was more than 5 in each visual field, it was deemed as CGC positive and was marked with “+”)” and the CGC formation (Bacteroides fragilis; [9]) was “+ (If cell length was more than 50 μm and cell number was more than 5 in each visual field, it was deemed as CGC positive and was marked with “+”)”. The CGC formation (Citro Bacter; [9]) was “+ (If cell length was more than 50 μm and cell number was more than 5 in each visual field, it was deemed as CGC positive and was marked with “+”)”, the CGC formation (Diphtheroid bacillus; [9]) was “+ (If cell length was more than 50 μm and cell number was more than 5 in each visual field, it was deemed as CGC positive and was marked with “+”)” and the CGC formation (E. coli; [9]) was “+ (If cell length was more than 50 μm and cell number was more than 5 in each visual field, it was deemed as CGC positive and was marked with “+”)”. The CGC formation (Klebsiella; [9]) was “+ (If cell length was more than 50 μm and cell number was more than 5 in each visual field, it was deemed as CGC positive and was marked with “+”)”, the CGC formation (Listeria; [9]) was “+ (If cell length was more than 50 μm and cell number was more than 5 in each visual field, it was deemed as CGC positive and was marked with “+”)” and the CGC formation (Nucleic Acid Bacter; [9]) was “+ (If cell length was more than 50 μm and cell number was more than 5 in each visual field, it was deemed as CGC positive and was marked with “+”)”.
